Measured values: patent US12527773B2, “Flavi-block: a pan-flavivirus inhibitor” (Baden-Württemberg Stiftung GmbH, priority 2020, dated 2026)
Where “and” joins values, the source holds several entries; their conditions need not be identical. Identical values can stand only once. Entries after “also recorded” stand apart in the source; their conditions may differ. Like-named read-outs stand apart in the source and are kept apart here.

Legend:
[1] = Pharmacokinetic study in Balb/c mice, peroral administration; type: in vivo; conditions: for Plasma concentration, Group A-D: single animals
Protocol: (§1) Study design, animal selection, handling and treatment were all in accordance with the study protocols and institutional animal care and use guidelines. Male Balb/c mice (9-10 weeks old, body weight 22.3 to 38.1 g and average body weight across all groups 31.4 g, SD=3.20 g) were used in this study. The animals were randomly assigned to the treatment groups before the pharmacokinetic study; all animals were fasted for 4 h before dosing. Six time points for PO (15, 30, 60, 120, 240 and 360 min) and IV (5, 15, 30, 60, 120 and 240 min) routes were used in this pharmacokinetic study. Each of the PO and IV time point treatment groups included 4 animals. There was also control group of 2 animals. Dosing was done according to the treatment schedules outlined in Table 3. Mice were injected IV with 2,2,2-tribromoethanol at the dose of 150 mg/kg prior to taking blood. Blood collection was performed from the orbital sinus in microtainers containing K2EDTA. Animals were sacrificed by cervical dislocation after blood samples collection. All samples were immediately prepared, flash-frozen and stored at −70° C. until subsequent bioanalysis.
(§2) Samples Processing Plasma samples ([…]) were mixed with […] of IS solution. After mixing by pipetting and centrifuging for 4 min at 6,000 rpm, […] of each supernatant was injected into LC-MS/MS system. Solution of compound IS-02-03 (200 ng/ml in acetonitrile-methanol mixture, 1:1, v/v) was used as internal standard (IS) for quantification of C10 in plasma samples. Samples Analysis The concentrations of C10 were determined using high performance liquid chromatography/tandem mass spectrometry (HPLC-MS/MS). Shimadzu H PLC system comprised of 2 isocratic pumps LC-10Advp, an autosampler SIL-HTc, a sub-controller FCV-14AH and a degasser DGU-14A. Mass spectrometric analysis was performed using an API 3000 (triple-quadrupole) instrument from AB Sciex (Canada) with an electro-spray (ESI) interface. The data acquisition and system control was performed using Analyst 1.5.2 software from AB Sciex. HPLC-MS/MS Conditions
(§3) The pharmacokinetic data analysis was performed using non-compartmental, bolus injection or extravascular input analysis models in WinNonlin 5.2 (PharSight). Data below LLOQ were presented as missing to improve validity of T1/2 calculations. No outlier data points were removed from calculations. The bioavailability for the peroral route was calculated as: […]

HIV = experiment: IC50 in established virological assays (Table 1), HIV; type: cell-based
Protocol: In summary, a set of C10 derivatives (FIG. 12) was designed, synthesized and tested against HCV (which is considered as an established system to monitor drug effects against Flaviviridae) as well as DENV for comprehensive structure-activity relationship (SAR) analysis and target validation. IC50 and CC50 values for compound C10 were determined in established virological assays (Table 1). […] Further, said experiments underline the specificity of compound C10 for flaviviruses.

DENV2 = experiment: Plaque assay of released virus, DENV2-infected Vero cells; type: cell-based; conditions: Dengue virus
Protocol: (§4) Vero cells were infected with DENV1-4 at an MOI of 1 for 2 h (post infection, p.i., (A)), after which virus was removed, and fresh maintenance medium containing 2% FCS together with the indicated concentration of C10 added. For co-treat condition (c.t., (B)), Vero cells were infected with DENV1-4 at an MOI of 1 in the presence of C10 for 2 h, followed by removal of the virus/C10 inoculums, and addition of fresh 2% fetal calf serum maintenance medium. […] Results represent the mean ±SD for duplicate wells from a single assay, representative of 2 independent experiments (cf. Tables 2A and 2B, infra, for pooled data).
(§5) Vero and BHK-21 cells were maintained in DMEM media supplemented with 10% heat-inactivated FBS at 37° C. in a humidified incubator supplemented with 5% CO2; A549 cells were maintained in F-12K medium supplemented with 10% heat-inactivated Fetal Bovine Serum (FBS), 2 mM L-glutamine, 50 U/I penicillin, 0.05 mg/l streptomycin. […] Viral titer was subsequently determined by plaque assay (see below).
(§6) Vero cells were seeded into 24-well plates at a density of 2×10^5 cells/well and grown overnight in culture medium at 37° C. with 5% CO2 prior to infection with RSV, KUNV, ZIKV as indicated. […] The stain was removed by rinsing the cells with tap water, and the viral plaques were counted visually. […]

DENV3 = experiment: Plaque assay of released virus, DENV3-infected Vero cells; type: cell-based; conditions: Dengue virus
Protocol: as §4, §5, §6

[2] = Pharmacokinetic study in Balb/c mice, intravenous administration; type: in vivo; design: Kel (Lambda_z): unit not given here; conditions: for Plasma concentration, Group A-D: single animals; for half-life: iv
Protocol: as §1, §2, §3

DENV4 = experiment: Plaque assay of released virus, DENV4-infected Vero cells; type: cell-based; conditions: Dengue virus
Protocol: as §4, §5, §6

[3] = male, Balb/c, mouse, plasma, IV 5 mg/kg

CCN1/C(=C\C=C\c2sc3cc(NC(C)=O)ccc3[n+]2CC)Sc2cc(NC(C)=O)ccc21.[I-] [C10, 6-acetamido-2-((1E,3E)-3-(6-acetamido-3-ethylbenzo[d]thiazol-2(3H)-ylidene)prop-1-en-1-yl)-3-ethylbenzo[d]thiazol-3-ium iodide]
oral bioavailability ([1]; PO 10 mg/kg versus IV 5 mg/kg): zero | Plasma concentration, Mean ([1]; PO 10 mg/kg, 15 min): 0 ng(ml) | Plasma concentration, Group A-D ([1]; PO 10 mg/kg, 15 min, below LLOQ 10 ng/ml designated as zero): 0 ng(ml) | Plasma concentration, Mean ([1]; PO 10 mg/kg, 30 min): 0 ng(ml) | Plasma concentration, Group A-D ([1]; PO 10 mg/kg, 30 min, below LLOQ designated as zero): 0 ng(ml) | Plasma concentration, Mean ([1]; PO 10 mg/kg, 60 min): 0 ng(ml) | Plasma concentration, Group A-D ([1]; PO 10 mg/kg, 60 min, below LLOQ designated as zero): 0 ng(ml) | Plasma concentration, Mean ([1]; PO 10 mg/kg, 120 min): 0 ng(ml) | Plasma concentration, Group A-D ([1]; PO 10 mg/kg, 120 min, below LLOQ designated as zero): 0 ng(ml) | Plasma concentration, Mean ([1]; PO 10 mg/kg, 240 min): 0 ng(ml) | Plasma concentration, Group A-D ([1]; PO 10 mg/kg, 240 min, below LLOQ designated as zero): 0 ng(ml) | Plasma concentration, Mean ([1]; PO 10 mg/kg, 360 min): 0 ng(ml) | Plasma concentration, Group A-D ([1]; PO 10 mg/kg, 360 min, below LLOQ designated as zero): 0 ng(ml) | plasma levels following PO dosing ([1]; PO 10 mg/kg, LLOQ 10 ng/ml): below the lower limit of quantitation | activity against HIV (HIV): does not act on HIV | IC50 (HIV; Human immunodeficiency virus 1, HIV): > 100 µM | EC50 (DENV2; read-out: EC50 from plaque assays, DENV2, c.t.): 40 nM | EC50 (DENV2; read-out: EC50 from plaque assays, DENV2, p.i.): 1300 nM | EC50 (DENV3; read-out: EC50 from plaque assays, DENV3, c.t.): 10 nM | EC50 (DENV3; read-out: EC50 from plaque assays, DENV3, p.i.): 600 nM | Kel (Lambda_z) ([2]; IV 5 mg/kg): 0.00581 | Vd (Vz_obs) ([2]; IV 5 mg/kg): 14100 mL/kg | Plasma concentration, Mean ([2]; IV 5 mg/kg, 5 min): 2690 ng(ml) | Plasma concentration, Group A-D ([2]; IV 5 mg/kg, 5 min, 5 mg/kg): 2780 ng(ml) and 2310 ng(ml) and 2606 ng(ml) and 3063 ng(ml) | Plasma concentration, Mean ([2]; IV 5 mg/kg, 15 min): 311 ng(ml) | Plasma concentration, Group A-D ([2]; IV 5 mg/kg, 15 min, 5 mg/kg): 185 ng(ml) and 316 ng(ml) and 521 ng(ml) and 221 ng(ml) | Plasma concentration, Mean ([2]; IV 5 mg/kg, 30 min): 154 ng(ml) | Plasma concentration, Group A-D ([2]; IV 5 mg/kg, 30 min, 5 mg/kg): 109 ng(ml) and 152 ng(ml) and 189 ng(ml) and 164 ng(ml) | Plasma concentration, Mean ([2]; IV 5 mg/kg, 60 min): 109 ng(ml) | Plasma concentration, Group A-D ([2]; IV 5 mg/kg, 60 min, 5 mg/kg): 93 ng(ml) and 160 ng(ml) and 89 ng(ml) and 92 ng(ml) | Plasma concentration, Mean ([2]; IV 5 mg/kg, 120 min): 60 ng(ml) | Plasma concentration, Group A-D ([2]; IV 5 mg/kg, 120 min, 5 mg/kg): 69 ng(ml) and 44 ng(ml) and 59 ng(ml) and 67 ng(ml) | Plasma concentration, Mean ([2]; IV 5 mg/kg, 240 min): 43 ng(ml) | Plasma concentration, Group A-D ([2]; IV 5 mg/kg, 240 min, 5 mg/kg): 47 ng(ml) and 43 ng(ml) (2×) and 40 ng(ml) | tolerability in mice ([2]; IV, 5 mg/kg): tolerated; also recorded: not toxic at high concentrations | Vd ([2]; male, Balb/c, mouse, plasma, 5 mg/kg, calculated, IV, read-out: volume of distribution): 14.1 L/kg | half-life ([2]; male, Balb/c, mouse, plasma, 5 mg/kg, IV 5 mg/kg, read-out: T1/2 (HL_Lambda_z)): 119 min | half-life ([2]; male, Balb/c, mouse, plasma, 5 mg/kg, mice, IV administration, read-out: half-life in plasma/serum (converted)): ~120 min | Cmax [2, 3]: 2690 ng/mL | Tmax [2, 3]: 5 min | AUC(0-t) ([2]; male, Balb/c, mouse, plasma, IV 5 mg/kg, read-out: AUC0→t = 240 min (AUClast) (converted)): 892 ng·h/mL | AUC(0-inf) ([2]; male, Balb/c, mouse, plasma, IV 5 mg/kg, read-out: AUC0→∞ (AUCINF_obs) (converted)): 1020 ng·h/mL | clearance ([2]; male, Balb/c, mouse, plasma, IV 5 mg/kg, read-out: CL (Cl_obs)): 82.1 mL/min/kg | MRT inf ([2]; male, Balb/c, mouse, plasma, IV 5 mg/kg, read-out: MRT (MRTinf) (converted)): 1.36 h | MRT last ([2]; male, Balb/c, mouse, plasma, IV 5 mg/kg, read-out: MRT (MRTlast) (converted)): 35.4 min | EC50 (DENV4; read-out: EC50 from plaque assays, DENV4, c.t.): 50 nM | EC50 (DENV4; read-out: EC50 from plaque assays, DENV4, p.i.): 790 nM
